Like-named read-outs stand apart in the source and are kept apart here.
Assays:
[1] = molecular target: T1, recombinant CpLDH protein (Cryptosporidium parvum, UniProt Q9GT92, F198L/K295E/R251K); assay: biochemical; type: biochemical; conditions: 20 μM compound; 10 mM pyruvate, 1 mM NADH
Method: (§1) Biochemical assays. The coding sequence of CpLDH was cloned from cDNA prepared from the AUCP-1 isolate of C. parvum, and the His-tagged CpLDH recombinant protein expressed in Escherichia coli, and purified in native form essentially as previously described (Int. J. Parasitol. 2017; 47(13), 867-874). Briefly, cDNA was prepared from total RNA extracted from the AUCP-1 isolate of C. parvum, and the coding sequencing of CpLDH (Genebank accession number AF274310.1) was PCR-amplified from the cDNA using a primer pair with a XhoI restriction site and a BamHI site. The PCR amplicon was cloned at the XhoI/BamHI site of the pET15b expression vector in-frame with the hexahistidine (His-tag) at the N-terminal and sequenced to confirm identity. The recombinant expression vector was transformed into protein expression E. coli BL21-CodonPlus-DE3-RIL (Stratagene). Transformed E. coli was cultured at 37° C. in Luria broth medium (supplemented with 100 μg/ml ampicillin and 34 μg/ml chloramphenicol) to an A600 of 0.8 followed by addition of 1 mM isopropyl-β-d-thiogalactopyranoside to induce protein expression. The expression E. coli was harvested and lysed under native conditions by sonicating in lysis buffer (50 mM NaH2PO4, 300 mM NaCl, 10 mM Imidazole, pH 8.0) containing a 1× EDTA-free protease inhibitor cocktail, 600 units benzonase and 30 kU lysozyme (EMD Millipore). The lysate was clarified by centrifugation and the His-tagged recombinant protein purified under native conditions by nickel-affinity chromatography according to the manufacturer's instructions (Novagen). The wash buffer used contained 50 mM NaH2PO4, 300 mM NaCl and 20 mM Imidazole, pH 8.0, while the elution buffer was composed of 50 mM NaH2PO4, 300 mM NaCl, 250 mM Imidazole, pH 8.0. The eluate was dialyzed using a buffer containing 5 mM Hepes-KOH (pH 7.8) and 0.5 mM DTT. The purity of the recombinant protein was determined by SDS/PAGE, and the concentration measured using a Qubit 3.0 fluorometer (Life technologies). […] On the other hand, the catalytic activity of CpLDH recombinant protein for the oxidation of lactate to pyruvate was determined by measuring the change in optical density of a 100 μl reaction mixture containing 100 mM lactate, 1 mM NAD^+, 100 mM Tris, pH 9.2, with varying concentrations of CpLDH recombinant protein at 25° C. […] In all assays, reaction mixtures without recombinant CpLDH protein were included as negative controls. All assays were performed in triplicate and repeated at least thrice. The change in optical density was measured every 15 seconds for a total of 2 minutes using a Spectra Max 384 Plus plate reader (Molecular Devices) at a wavelength of 340 nm.
Screening compounds for inhibitory activity against CpLDH. The chemical compounds were obtained from the National Cancer Institute/Developmental Therapeutics Program Open Chemical Repository. They consisted of a diverse set of compounds (n=27) reported previously (Int J Parasitol Drugs Drug Resist. 2016; 6(1), 44-53), and a Mechanistic Set IV compounds (n=800). The compounds were reconstituted in dimethyl sulfoxide (DMSO) as stock solutions. Just before use, aliquots of the stock solutions were diluted in sterile distilled water to generate working solutions, such that the final amount of DMSO added to the reaction mixtures was less than 1% (V/V). The compounds were tested for their inhibitory effect against the enzymatic activity of recombinant His-tagged CpLDH for catalyzing the reduction of pyruvate to lactate. […] Control reactions without recombinant CpLDH protein were included. Reactions were performed in triplicate and repeated at least thrice. The change in optical density was measured every 15 seconds for a total of 2 minutes using a Spectra Max 384 Plus plate reader (Molecular Devices) at a wavelength of 340 nm.

[2] = test system: HCT-8 cells; assay: Compound cytotoxicity assay (WST-1) in HCT-8 cells; type: cell-based, human
Method: Compound cytotoxicity assay. […] A colorimetric assay using the cell proliferation reagent WST-1 (Roche, USA) for the quantification of cell viability was performed. […] When the cells were confluent, the old medium was replaced with fresh medium with or without varying concentrations of chemical compound. After 24 h of culture, 10 μl of the cell proliferation reagent WST-1, (for quantification of cell viability) was added to each well, mixed and the plates incubated for 1 h at 37 C with 5% CO2 in the dark. […] Molecular Devices, USA).

[3] = molecular target: T1, recombinant CpLDH protein; assay: CpLDH enzyme kinetics on substrates and co-factors; type: biochemical; conditions: for Km: pyruvate/NADH: reduction of pyruvate to lactate, lactate/NAD+: oxidation of lactate to pyruvate, 25° C.; for Kcat / Vmax: pyruvate/NADH: reduction, lactate/NAD+: oxidation
Method: as §1

[4] = molecular target: T1, recombinant CpLDH protein; conditions: reported by Zhang et al., PLoS Pathog. 2015; cited from earlier work
[5] = HCT-8 cells, 24 h, WST-1, read-out: CYTOTOXICITY IC50

T1 sequence (Q9GT92 whole entry F198L/K295E/R251K): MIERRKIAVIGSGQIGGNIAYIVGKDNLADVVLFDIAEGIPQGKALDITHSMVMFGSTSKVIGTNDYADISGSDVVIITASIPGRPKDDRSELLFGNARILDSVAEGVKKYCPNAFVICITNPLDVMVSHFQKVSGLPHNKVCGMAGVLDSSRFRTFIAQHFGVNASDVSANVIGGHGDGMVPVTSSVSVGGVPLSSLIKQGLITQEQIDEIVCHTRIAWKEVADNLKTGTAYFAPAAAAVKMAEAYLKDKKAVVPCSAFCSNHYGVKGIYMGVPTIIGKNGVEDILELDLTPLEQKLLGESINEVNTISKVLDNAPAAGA

SMILES	effect on catalytic activity of recombinant CpLDH [1]	IC50 [2]	also measured
O=c1oc2cc(O)ccc2c2oc3cc(O)ccc3c12 [NSC22842]	significant (P<0.05) inhibitory effect	83.5 µM	–
NC(=O)c1ccc[n+]([C@@H]2O[C@H](COP(=O)([O-])OP(=O)(O)OC[C@H]3O[C@@H](n4cnc5c(N)ncnc54)[C@H](O)[C@@H]3O)[C@@H](O)[C@H]2O)c1 [NAD^+]	–	–	Km ([3]; read-out: Km): 56 µM; Kcat [3]: 0.11 s⁻¹; Vmax [3]: 0.07 nmol⁻¹ µg⁻¹ min⁻¹; Kcat [4]: (0.70)* s^−1; Km [4]: 62 µM; Vmax [4]: (0.56)* nmol^−1 · μg^−1 · min^−1
O=S(=O)(O)c1cc(N=[N+]([O-])c2cc(S(=O)(=O)O)c3ccccc3c2)cc2ccccc12 [NSC37031]	significantly (P<0.05) inhibited	333 µM	–
COC(=O)C1=C(C(=O)OC)SC2(S1)C(C(=O)OC)=C(C(=O)OC)Sc1c2ssc1=O [NSC686349]	significant (P<0.05) inhibitory effect	283 µM	–
O=S(=O)(O)c1cc(N=Nc2cc(S(=O)(=O)O)c3cccnc3c2O)ccc1/C=C/c1ccc(N=Nc2cc(S(=O)(=O)O)c3cccnc3c2O)cc1S(=O)(=O)O [NSC638352]	significant (P<0.05) inhibitory effect	116 µM	–
O=Cc1cc([N+](=O)[O-])no1 [NSC626433]	significant (P<0.05) inhibitory effect	265 µM	–
CC(O)C(=O)O (centres unmarked) [Lactate, lactate]	–	–	Km ([3]; read-out: Km): 39600 µM; Kcat [3]: 0.07 s⁻¹; Vmax [3]: 0.04 nmol⁻¹ µg⁻¹ min⁻¹; Kcat [4]: (0.66)* s^−1; Km [4]: 10800 µM; Vmax [4]: (0.53)* nmol^−1 · μg^−1 · min^−1
CN(C)C(=S)SSC(=S)N(C)C [NSC1771]	significant (P<0.05) inhibitory effect	–	IC50 [2, 5]: 110 µM
NC(=O)C1=CN([C@@H]2O[C@H](COP(=O)(O)OP(=O)(O)OC[C@H]3O[C@@H](n4cnc5c(N)ncnc54)[C@H](O)[C@@H]3O)[C@@H](O)[C@H]2O)C=CC1 [NADH]	–	–	Km ([3]; read-out: Km): 734 µM; Vmax [3]: 6.29 nmol⁻¹ µg⁻¹ min⁻¹; Kcat [4]: (11.70)* s^−1; Km [4]: 92 µM; Vmax [4]: (9.33)* nmol^−1 · μg^−1 · min^−1
Cc1cc2c(c3oc(C4(C)OC4C4OC4C)cc(=O)c13)C(=O)c1c(O)c(C3CC(C)(N(C)C)C(O)C(C)O3)cc(C3CC(N(C)C)C(O)C(C)O3)c1C2=O (centres unmarked) [NSC70929]	significant (P<0.05) inhibitory effect	181 µM	–
O=[N+]([O-])c1ccc2c(N=Nc3c(O)ccc4ccccc34)c(O)cc(S(=O)(=O)[O-])c2c1.[Na+] [NSC73413]	significant (P<0.05) inhibitory effect	220 µM	–
CCOC(=O)Cc1c(C)c2cc(C(=O)c3ccccc3)c(O)cc2oc1=O [NSC115538]	–	158 µM	–
Cc1ccc2c(sc(-c3ccc4c(c3)sc(-c3ccc(N(C)C)cc3)[n+]4C)[n+]2C)c1S(=O)(=O)[O-].[Cl-] [NSC71948]	significant (P<0.05) inhibitory effect	106 µM	–
[Cl][Cd][Cl] [NSC51148]	significant (P<0.05) inhibitory effect	39.6 µM	–
CC(=O)Nc1ccc(-c2nc3ccccc3s2)cc1 [NSC33006]	significant (P<0.05) inhibitory effect	87.3 µM	–
CC(=O)C(=O)O [Pyruvate, pyruvate]	–	–	Km [3]: 731 µM
CCOC(C)C(C=NNC(N)=S)=NNC(N)=S (centres unmarked) [NSC82116]	significant (P<0.05) inhibitory effect	118 µM	–
CC1=C(CCC(=O)O)c2cc3nc(cc4[nH]c(cc4C)cc4[nH]c(cc1n2)cc4C)C(C)=C3CCC(=O)O [NSC18298]	significant (P<0.05) inhibitory effect	81.9 µM	–
COc1ccc(/C=C/C(=O)Oc2cc(O)cc(O)c2)cc1 [NSC175296]	–	156 µM	–
O=[N+]([O-])c1cccc2c(N=Nc3ccc4ccccc4c3O)c(O)cc(S(=O)(=O)O)c12.[Na+] [NSC85561]	significant (P<0.05) inhibitory effect	103 µM	–
COc1ccc(CCN(C)CCCC(C#N)(c2ccc(OC)c(OC)c2)C(C)C)cc1OC.Cl (centres unmarked) [NSC657799]	significant (P<0.05) inhibitory effect	–	–
O=C(CC(=O)C(F)(F)F)c1csc2ccccc12 [NSC80396]	–	91.9 µM	–
O=C([CH-]C(=O)C(F)(F)F)c1ccccc1.O=C([CH-]C(=O)C(F)(F)F)c1ccccc1.O=C([CH-]C(=O)C(F)(F)F)c1ccccc1.O=C([CH-]C(=O)C(F)(F)F)c1ccccc1.[Eu+3].c1ccncc1 [NSC253995]	significant (P<0.05) inhibitory effect	83 µM	–
N#CCCN(CCC#N)Cc1cc(O)c(CN(CCC#N)CCC#N)cc1O [NSC70925]	significant (P<0.05) inhibitory effect	142 µM	–
Cc1cc2c(C(C)C)c(O)c(O)c(C=O)c2c(O)c1-c1c(C)cc2c(C(C)C)c(O)c(O)c(C=O)c2c1O [NSC56817]	significant (P<0.05) inhibitory effect	–	IC50 [2, 5]: 64.2 µM
O=S(=O)([O-])c1cc(N=Nc2cc(S(=O)(=O)[O-])c3ccccc3c2O)ccc1/C=C/c1ccc(N=Nc2cc(S(=O)(=O)[O-])c3ccccc3c2O)cc1S(=O)(=O)[O-].[Na+].[Na+].[Na+].[Na+] [NSC34931]	significant (P<0.05) inhibitory effect	71.1 µM	–
Cc1cc(N(CCCl)CCCl)ccc1/C=N/NC(=O)Cc1cc(=O)oc2cc(O)ccc12 [NSC79688]	significant (P<0.05) inhibitory effect	–	IC50 [2, 5]: 145 µM
O=C1/C(=C/c2ccccc2)CN(C(=O)/C=C/c2ccccc2)C/C1=C\c1ccccc1 [NSC638634]	–	157 µM	–
CC(O)CCC(=O)c1ccoc1 (centres unmarked) [NSC349438]	significant (P<0.05) inhibitory effect	93.9 µM	–
O=C(O)[C@@H]1[C@H](C(=O)O)[C@]2(Cl)C(Cl)=C(Cl)[C@@]1(Cl)C2(Cl)Cl [NSC22225]	significantly (P<0.05) inhibited	96.8 µM	–
